Measurements published in paper PMC4922569, “Antifibrotic Effects of the Dual CCR2/CCR5 Antagonist Cenicriviroc in Animal Models of Liver and Kidney Fibrosis” (PLoS ONE, 2016).
Counter-ions that a name gives are not always drawn.

Experiments:
[1] = tested on: CCR5 on CD4+ and CD8+ T-cells; set-up: method as in earlier work; details: human PBMC ex vivo, cited from earlier work
[2] = in mice; cited from earlier work
[3] = Body and liver weights, NASH model; type: in vivo, mouse; details: mean±SD
Protocol: NASH was induced in male C57BL/6 mice (Charles River Laboratories, Japan) via subcutaneous injection of 200 μg of streptozotocin 2 days post-birth (causing mild islet inflammation and islet destruction) plus a high-fat diet (57 kcal% fat) from 4 weeks of age (sequentially causing fatty changes to the liver, NASH and fibrosis). From Weeks 6 to 9, three groups (n = 9/group) received vehicle control, CVC20 or CVC100 BID PO (S1 Table). At Week 9, six animals per group were sacrificed for assessment of liver fibrosis and Non-Alcoholic Fatty Liver Disease (NAFLD) Activity Score (NAS). The animals were sacrificed by exsanguination through direct cardiac puncture under ether anesthesia. Study endpoints included: body and liver weights, plasma biochemistry (e.g. ALT and CCL2), extracellular matrix protein in liver tissue (hydroxyproline content), mRNA expression (collagen type 1, tumor necrosis factor-alpha, MCP-1, TIMP1) and histopathological analyses. Blood samples were collected and plasma samples derived for biochemistry assessments. Sections were cut from paraffin blocks of liver tissue, prefixed in Bouin’s solution and stained with H&E for histological examination.
(§1) Body weight (measured before and during treatment) and sacrificed animal body and liver/kidney/spleen weights were recorded.

[4] = CVC plasma levels in the TG-induced model of peritonitis (LC/MS/MS); type: in vivo; details: male, C57BL/6, mouse, oral, 20 mg/kg/day, CVC20 QD, n = 5, 26 hours post-dose, read-out: CVC trough plasma level
Protocol: Male C57BL/6 mice (n = 44; 8–10 weeks of age; Charles River Laboratories, Canada) were allocated to receive treatments via oral gavage (PO) on Days 1–5 in the following groups: non-disease control, vehicle control twice daily (BID), CVC 5 mg/kg/day (CVC5) BID, CVC 20 mg/kg/day (CVC20) BID, CVC 100 mg/kg/day (CVC100) BID, CVC20 QD, and positive control dexamethasone (corticosteroid known to reduce inflammation in a variety of animal models) 1 mg/kg QD (S1 Table). On Day 4, peritonitis was induced via IP injection of TG 3.85% (1 mL/animal) 2 hours post-dose in all groups except non-disease controls. Study endpoints included: peritoneal lavage cell counts and pharmacokinetic (PK) evaluation. Animals were sacrificed 48 hours post-TG injection by isoflurane inhalation, and peritoneal lavage and blood samples (0.7 mL) were collected. Differential cell counts were assessed in peritoneal lavage samples using an Advia® Hematology System (Siemens Healthcare Diagnostics, USA) with multispecies software and an analysis software designed for mouse peritoneal fluid on Advia® 120 (LabThruPut, USA). A 0.3 mL aliquot of the blood sample was processed to plasma for PK analysis.
CVC plasma levels (minimum and maximum) were determined by KCAS Bioanalytical Services, USA, using a validated liquid chromatography-tandem mass spectrometry (LC/MS/MS) plasma method (50 μL assay, range 10.0−1920.0 ng/mL).

[5] = tested on: hepatic fibrosis scores (APRI, FIB-4, ELF); details: cited from earlier work
[6] = set-up: method as in PMID 21317794, PMID 21486960, PMID 16251299; details: in humans; cited from earlier work
[7] = tested on: CCl4-induced liver injury; details: cited from earlier work
[8] = tested on: MCD-induced NASH; details: cited from earlier work
[9] = Body and liver weights, TAA model; type: in vivo, rat; details: average±SD
Protocol: Using male Sprague-Dawley rats (n = 72, 10–12 weeks of age; Harlan Laboratories, USA), fibrosis was induced by IP administration of TAA at a dose of 150 mg/kg three times per week for 8 weeks. Rats (n = 4–8/group) received vehicle control, CVC 30 mg/kg/day (CVC30) or CVC100 QD PO during Weeks 0–8 (early intervention), Weeks 4–8 (established fibrosis) or Weeks 8–12 (cirrhosis reversal) and were sacrificed at Weeks 8, 8 or 12, respectively (S1 Table). Study endpoints included: body and liver weights, liver biochemistry (e.g. serum alanine and aspartate aminotransferase [ALT/AST]), extracellular matrix protein expression in liver tissue (collagen type 1 and alpha-SMA), mRNA expression (collagen type 1, alpha-SMA, beta-platelet-derived growth factor-beta receptor, TGF beta-receptor, matrix metalloproteinase 2, tissue inhibitor of metalloproteinases 1 [TIMP1] and 2 [TIMP2]) and liver morphology. For liver-function testing, plasma samples were obtained from blood collected from the vena cava. Livers were sectioned and fixed in 3.7% formalin, embedded in paraffin, cut at […] thickness and stained with hematoxylin and eosin (H&E) for histological examination.
as §1

[10] = between Baseline and Week 24, maintained at Week 48
[11] = cirrhosis reversal, CVC 30 mg/kg/day
[12] = cirrhosis reversal, CVC 100 mg/kg/day
[13] = early intervention, CVC 30 mg/kg/day
[14] = early intervention, CVC 100 mg/kg/day
[15] = established fibrosis, CVC 30 mg/kg/day
[16] = established fibrosis, CVC 100 mg/kg/day

In the case of CCCCOCCOc1ccc(-c2ccc3c(c2)/C=C(/C(=O)Nc2ccc([S@@+]([O-])Cc4cncn4CCC)cc2)CCCN3CC(C)C)cc1 [CVC, cenicriviroc mesylate], the “Receptor occupancy for CCR5 on CD8+ T-cells” value ([1]; at 2.3 nmol/L) is listed as no less than 90%, the “Receptor occupancy for CCR5 on CD4+ T-cells” value ([1]; at 3.1 nmol/L) is listed as no less than 90% and the Half-life [2] is listed as ~ 2 hours. The Final body weight ([3]; CVC 20 mg/kg/day) was 19.5 ± 2.0 g, the Liver weight ([3]; CVC 20 mg/kg/day) was 1334 ± 99 mg and the Liver-to-body weight ratio ([3]; CVC 20 mg/kg/day) was 6.9±1.0%. The Final body weight ([3]; CVC 100 mg/kg/day) was 18.7 ± 0.9 g, the Liver weight ([3]; CVC 100 mg/kg/day) was 1307 ± 119 mg and the Liver-to-body weight ratio ([3]; CVC 100 mg/kg/day) was 7.0±0.8%. For the same compound, the concentration at 26 h [4] was 25.7 ± 8.1 ng/mL, the “Enhanced liver fibrosis (ELF) scores” value ([5]; Week 48, p < 0.0001) was “significant reduction” and the “Decrease in proportion of subjects with APRI score ≥0.5” value [5, 10] was 75%. For the same compound, the “Decrease in proportion of subjects with FIB-4 score ≥1.45” value [5, 10] was 73%, the Plasma half-life [6] was 30 to 40 h and the “Infiltration of Ly6Chi monocyte-derived macrophages into the liver” value ([7]; CCl4 model, preliminary data) was “significantly decreased”. The Necrotic area ([7]; acute CCl4 model) was “significant reduction”, the “Infiltration of Ly6Chi monocyte-derived macrophages into the liver” value ([8]; MCD model, preliminary data) was “significantly decreased” and the “Hepatic fibrosis (Sirius red staining and hydroxyproline content)” value ([8]; chronic MCD model of NASH) was “reduced”. For the same compound, the “Steatohepatitis, assessed by histological NAFLD activity score” value ([8]; chronic MCD model of NASH) was “significantly ameliorated”, the Final body weight [9, 11] was 390.3 ± 9.3 g and the Liver weight [9, 11] was 19 ± 0.7 g. For the same compound, the Liver-to-body weight ratio [9, 11] was 4.9±0.2%, the Final body weight [9, 12] was 386.4 ± 4.9 g and the Liver weight [9, 12] was 18.5 ± 0.7 g. For the same compound, the Liver-to-body weight ratio [9, 12] was 4.8±0.2%, the Final body weight [9, 13] was 330.9 ± 6.4 g and the Liver weight [9, 13] was 17.9 ± 1.6 g. For the same compound, the Liver-to-body weight ratio [9, 13] was 5.4±0.5%, the Final body weight [9, 14] was 347.2 ± 6.9 g and the Liver weight [9, 14] was 17.5 ± 0.5 g. The Liver-to-body weight ratio [9, 14] was 5.0±0.1%, the Final body weight [9, 15] was 342.0 ± 7.7 g and the Liver weight [9, 15] was 15.6 ± 0.6 g. For the same compound, the Liver-to-body weight ratio ([9]; established fibrosis, CVC 30 mg/kg/day, p < 0.05 vs vehicle control) was 4.6±0.1 %, the Final body weight [9, 16] was 327.3 ± 7.8 g and the Liver weight [9, 16] was 15.8 ± 0.9 g. The Liver-to-body weight ratio [9, 16] was 4.8±0.2%.
